According to patent publication US5140040A, “1-aminomethyl-1,2,3,4-tetrahydronaphthalenes” (Abbott Laboratories, priority 1991, dated 1992):
Counter-ions that a name gives are not always drawn.

Target: alpha-2-receptor
Test: Radioligand binding, alpha-2 adrenoceptor, rat cerebral cortices, [^3 H]-rauwolscine
Conditions: for Ki: rat cerebral cortices, [^3 H]-rauwolscine; for alpha-2 - Selectivity Ki alpha-1/Ki alpha 2: ratio of Ki alpha-1 to Ki alpha-2
Protocol: The compounds were assessed for alpha-adrenergic receptor subtype selectivity by use of radioligand binding techniques as described previously (DeBernardis et.al. J. Med. Chem. 28, 1398 (1985)).

Row | Ki [nM] | alpha-2 - Selectivity Ki alpha-1/Ki alpha 2 | Compound
1 | 1.5 | 333 | COc1ccc2c(c1)CCCC2CN(C)CCc1ccsc1 (stereo not shown) [Example 6d, 1--((N-methylamino)methyl N-(2-(3-thienyl)ethyl))-6-methoxy tetralin hydrochloride]
2 | 3.5 | 430 | COc1ccc2c(c1)CCCC2CN(C)CCC1CCCS1 (stereo not shown) [Example 6h, 1-((N-methylamino)methyl-N-(2-(2-tetrahydrothienyl)ethyl))-6-methoxy tetralin hydrochloride]
3 | 1.6 | 353 | CN(CCc1cccs1)CC1CCCc2cc(O)ccc21 (stereo not shown) [Example 7, 1-((N-Methylamino)methyl-N(2-(2-thienyl)ethyl))-6-hydroxy tetralin hydrochloride]
4 | 5 | 242 | COc1ccc2c(c1)CCCC2CN(C)CCc1cccn1C (stereo not shown) [Example 12, 1-((N-Methylamino)methyl-N-(2-(N-methyl2-pyrrolyl)-ethyl))-6-methoxy tetralin fumarate]
5 | 1.3 | 535 | CN(CCc1cccs1)CC1CCCc2ccccc21 (stereo not shown) [Example 22, 1-((N-Methylamino)methyl-N-(2-(2-thienyl)ethyl)) tetralin hydrochloride]
6 | 1.7 | 262 | CN(CCc1cccs1)CC1CCCc2c1ccc1c2OCO1 (stereo not shown) [Example 23, 1-((N-Methylamino)methyl-N-(2-(2-thienyl)ethyl))-5,6-methylenedioxy tetralin hydrochloride]
7 | 0.6 | 292 | COc1cc2c(c(OC)c1)C(CN(C)CCc1cccs1)CCC2 (stereo not shown) [Example 26, 1-((N-Methylamino)methyl-N-(2-(2-thienyl)ethyl))-6,8-dimethoxy tetralin hydrochloride]
8 | 2 | 263 | COc1ccc2c(c1)C(CN(C)CCc1cccs1)CCC2 (stereo not shown) [Example 27, 1-((N-Methylamino)methyl-N-(2-(2-thienyl)ethyl))-7-methoxy tetralin hydrochloride]
9 | 6.9 | 95 | COc1ccc(C)c2c1CCCC2CN(C)CCc1cccs1 (stereo not shown) [Example 36, 1-(N-Methylamino)methyl-N-(2-(2-thienyl)ethyl))-5-methoxy-8-methyl tetralin hydrochloride]
10 | 3.7 | 174 | COc1ccc2c(c1)CCC2CN(C)CCc1cccs1 (stereo not shown) [Example 37, 1-((N-Methylamino)methyl-N-(2-(2-thienyl)ethyl))-5-methoxy indane hydrochloride]
11 | 6.6 | 159 | CCN(CCc1cccc(F)c1)CC1CCCc2cc(OC)ccc21 (stereo not shown) [Example 42, 1-((N-Ethylamino)methyl-N-(2-(m-fluorophenyl)ethyl))-6-methoxy tetralin hydrochloride]
12 | 6 | 233 | CCN(CCc1ccco1)CC1CCCc2cc(OC)ccc21 (stereo not shown) [Example 43, 1-((N-Ethylamino)methyl-N-(2-(2-furyl)ethyl))-6-methoxy tetralin hydrochloride]
13 | 18 | 102 | CCCN(CCc1cccs1)CC1CCCc2cc(OC)ccc21 (stereo not shown) [Example 58, 1-((N propylamino)methyl)-N-(2-(2-thienyl)ethyl))-6-methoxy tetralin hydrochloride]
14 | 6 | 195 | COc1ccc2c(c1)CCCC2CN(C)CCc1cccc(N)c1 (stereo not shown) [Example 67, 1 ((N-Methylamino)methyl-N-(2-(maminophenyl)ethyl))-6-methoxy tetralin dihydrochloride]
15 | 6 | 196 | CN(CCc1cccc(N)c1)CC1CCCc2cc(O)ccc21 (stereo not shown) [Example 68, 1-((N-Methylamino)methyl N-(2-(m-aminophenyl)ethyl))-6-hydroxy tetralin dihydrobromide]
16 | 13 | 98 | CCOc1ccc2c(c1)CCCC2CN(C)CCc1cccc(N)c1 (stereo not shown) [Example 69, 1-((N-Methylamino)methyl-N-(2-(m-aminophenyl)ethyl))-6-ethoxy tetralin dihydrochloride]
17 | 5 | 105 | CN(CCc1cccc(F)c1)CC1CCCc2ccccc21 (stereo not shown) [Example 70, 1-((N-Methylamino)methyl-N-(2-(m-fluorophenyl)ethyl))-tetralin hydrochloride]
18 | 4 | 124 | CN(CCc1cccc(O)c1)CC1CCCc2cc(O)ccc21 (stereo not shown) [Example 82, 1-((N-Methylamino)methyl-N-(2-(m-hydroxyphenyl)ethyl))-6-hydroxy tetralin hydrochloride]
19 | 8 | 119 | COc1ccc2c(c1)CCCC2CN(C)CCc1cccc(O)c1 (stereo not shown) [Example 83, 1-((N-Methylamino)methyl-N-(2-(m-hydroxyphenyl)ethyl))-6-methoxy tetralin hydrochloride]

Row | Ki [nM] | alpha-2 - Selectivity Ki alpha-1/Ki alpha 2 | Compound
20 | 1.5 | 173 | CN(CCc1cccc(F)c1)CC1CCCc2c1ccc(O)c2O (stereo not shown) [Example 85, 1-((N-Methylamino)methyl-N-(2-(m-fluorophenyl)ethyl))-5,6-dihydroxy tetralin hydrochloride]
21 | 3 | 165 | COc1ccc2c(c1OC)CCCC2CN(C)CCc1cccs1 (stereo not shown) [Example 86, 1-((N-Methylamino)methyl-N-(2-(2-thienyl)ethyl))-5,6-dimethoxy tetralin hydrochloride]
22 | 1.6 | 278 | CN(CCc1cccs1)CC1CCCc2c1ccc(O)c2O (stereo not shown) [Example 87, 1-((N-Methylamino)methyl-N-(2-(2-thienyl)ethyl))-5,6-dihydroxy tetralin hydrochloride]
23 | 2 | 158 | CN(CCc1ccccc1)CC1CCCc2ccccc21 (stereo not shown) [Example 88, 1-(N-Methylamino)methyl-N-(2-phenethyl)) tetralin hydrochloride]
24 | 5.7 | 127 | CN(CCc1ccccc1)CC1CCCc2cc(N)ccc21 (stereo not shown) [Example 114, 1-((N-Methylaminomethyl-N-(2-phenylethyl))-6-aminotetralindihydrochloride]
25 | 3 | 177 | CN(CCc1cccs1)CC1CCCc2c1ccc(O)c2I (stereo not shown) [Example 115, 1-((N-Methylamino)methyl-N-(2-(2-thienyl)ethyl))-5-iodo-6-hydroxy tetralin hydrochloride]
26 | 1 | 95 | COc1ccc2c(c1)CCCC2CN1CCC(c2ccccc2)C1 (stereo not shown) [Example 121, 6-Methoxy-1-(3-phenylpyrrolidino-1-methyl) tetralin hydrochloride]
27 | 8 | 107 | COc1cc2c(cc1C)C(CN(C)CCc1ccco1)CCC2 (stereo not shown) [Example 128, 1-((N-Methylamino)methyl-N-(2-(2-furyl)ethyl))-6-methoxy 7-methyl tetralin hydrochloride]
28 | 3.6 | 55 | CN(CCc1cccs1)CC1CCCc2c(Cl)cccc21 (stereo not shown) [Example 129, 1-((N-Methylamino)methyl-N-(2-(2-thieny)ethyl))-5-chloro tetralin hydrochloride]
29 | 4.8 | 183 | COc1cc2c(cc1F)C(CN(C)CCc1ccco1)CCC2 (stereo not shown) [Example 141, 1-((N-methylamino)methyl-N-(2-(2-furyl)ethyl))-6-methoxy-7-fluoro tetralin methanesulfonate]
30 | 1.2 | 204 | c1csc(C2CCN(CC3CCCc4c3ccc3c4OCO3)C2)c1 (stereo not shown) [Example 144, 5,6-Methylenedioxy-1-(3-(2-thienyl)pyrrolidino-1-methyl) tetralin methanesulfonate]
31 | 4.9 | 35 | COc1cccc2c1CCCC2CN1CCC(c2cccs2)C1 (stereo not shown) [Example 146, 5-Methoxy1-(3-(2-thienyl)pyrrolidino-1-methyl) tetralin hydrochloride]
32 | 6.5 | 19 | Fc1ccc2c(c1)CCCC2CN1CCC(c2ccccc2)C1 (stereo not shown) [Example 148, 6-Fluoro-1-(3-phenylpyrrolidino-1-methyl) tetralin methanesulfonate]
33 | 2.5 | 71 | COc1ccc2c(c1)CCC2CN1CCC(c2cccs2)C1 (stereo not shown) [Example 151, 5-Methoxy1-(3-(2-thienyl)pyrrolidino-1-methyl) indane hydrochloride]
34 | 8.6 | 7 | COc1ccc2c(c1)CCC2CN1CCC(c2cccc(F)c2)C1 (stereo not shown) [Example 153, 5-Methoxy-1-(3-(m-fluorophenyl)pyrrolidino-1-methyl) indane hydrochloride]
35 | 6 | 21 | Nc1ccc2c(c1)CCCC2CN1CCC(c2ccccc2)C1 (stereo not shown) [Example 156, 6-Amino-1-(3-phenylpyrrolidino-1-methyl) tetralin dihydrochloride]
36 | 3.7 | 258 | CCN(CCc1cccs1)CC1CCCc2c1ccc1c2OCO1 (stereo not shown) [Example 164, 1-(N-Ethylamino)methyl-N-(2-(2-thienyl)ethyl))-5,6-methylenedioxy tetralin hydrochloride]
37 | 4.2 | 85 | CN(CCc1cccc(F)c1)CC1CCCc2c1ccc1c2OCCO1 (stereo not shown) [Example 167, 1-((N-Methylamino)methyl N-(2-m-fluorophenethyl))-5,6-ethylenedioxy tetralin methanesulfonate]

Row | Compound | Ki [nM] | alpha-2 - Selectivity Ki alpha-1/Ki alpha 2
38 | COc1ccc2c(c1)CCCC2CN(C)CCC1CCCC1 (stereo not shown) [Example 6f, 1-((N-methylamino)methyl N-(2-(cyclopentyl)ethyl)) 6-methoxy tetralin hydrochloride] | 6.5 | 332
